Test results taken from patent US10828303B2, “Composition comprising combination of TRH analog with arundic acid, and pharmaceutically acceptable salt of arundic acid” (Brivention Pharmaceutical (Shanghai) Inc., priority 2016, dated 2020).
Several values for one entry are separate records, joined by “and”; a condition that tells them apart may be missing. Equal entries are not always repeated.

Assays:
[1] = tested on: four-vessel occlusion model of rats; experiment: Morris water maze Hidden test in four-vessel occlusion model; assay type: in vivo, rat; conditions: for Hidden test Latency / Hidden test Total distance moved: 4-VO rats; for Hidden test Latency / Hidden test Total distance moved / Time to reach the platform in the Hidden test, in words / Total distance moved in the Hidden test, in words: oral 28 d: arundic acid 30, taltirelin 10, combination 10+3 mg/kg/day; for Hidden test, At the time of grouping Latency: before administration, 1 week after 4-VO; for Time to reach the platform in the Hidden test, in words / Total distance moved in the Hidden test, in words: vs Group 2 control
Method: A Morris water maze test was performed by using a circular pool (168 cm in diameter and 40 cm in depth) filled with water, and a platform (10 cm in diameter and 30 cm in height) for escape of rats. In Zone 3, one transparent plastic escape platform (10 cm in diameter and 30 cm in height) was set at a location 40 cm away from the center of the pool, and […] away from the periphery of the pool. The water temperature of the water maze during the experiment was kept at 23° C. (±1.5° C.). A Hidden test was performed at the time of grouping 1 week after four-vessel occlusion, and on the day following the final administration of test drugs. For the Hidden test, the pool was filled with water to a height of 1 cm above the platform (water depth: 31 cm). A Transfer test was performed 3 days after the final administration of test drugs. For the Transfer test, the platform was removed, and the pool was filled with water to a water depth of 31 cm. To enable the rats to memorize surrounding various spatial arrangements, cues, such as posters and photographs, were placed on the wall. The cues always remained at the same locations during the experiment (FIG. 1: a plan view of Morris water maze, and the laboratory layout).
3) One week after restoration of blood flow, 5 trials of the Hidden test according to the Morris water maze test were performed with intervals of 30 minutes, and a cut-off time of 180 seconds. The rats were grouped by using swimming escape latency (time to reach the platform) as an index. After grouping, oral administration of the drug(s) was started. 4) The drug(s) were orally administered for 28 days. 5) On the day following the final administration of the drug, 5 trials of the Hidden Test for assessing spatial memory by using a water maze were performed with intervals of 30 minutes, and a cut-off time of 180 seconds. After 30 minutes, the platform was removed, and a Transfer test was performed with the pool being filled with water to a water depth of 31 cm.
From the starting point in Zone 1, the rats were thrown into a water maze with their heads being directed toward the outside of the water maze. The location of the platform was fixed at a point (corresponding to E in FIG. 1) on the east side in the water maze (corresponding to Zone 3 in FIG. 1). The maximum time of one trial was 180 seconds. When a rat reached the platform within 180 seconds, the rat was allowed to stand on the platform for 15 seconds. […] This rat was expected to learn the location of the platform by using surrounding various spatial arrangements as cues during the 180 seconds of the Hidden test and 15 seconds of being allowed to stand on the platform (Hidden test). In the Hidden test, swimming trajectory to the goal, swimming distance, swimming escape latency (time to reach the platform), and average swimming speed were measured per trial.
The behaviors of the rats in each trial were automatically analyzed with a CCD camera and the SMART (produced by Kyoto L Giken) behavioral analysis program by binarization of the white color of rats' fur and black ash color of the surrounding area.
Significant differences between the groups in spatial memory according to the Morris water maze method were determined by the nonparametric Dunnett's multiple comparison test. 6) After completion of the Morris water maze test, the brain of each rat was perfusion-fixed with 4% paraformaldehyde. The details are as follows.

[2] = Body weight changes in four-vessel occlusion rats; assay type: in vivo, rat; conditions: for Body weight, Day 7 / Body weight, Day 14 / Body weight, Day 21 / Body weight, Day 28 / Body weight, Day 0: Mean ± S.E.; for Body weight, Day 7 / Body weight, Day 14 / Body weight, Day 21 / Body weight, Day 28: 4-VO rats, oral daily: arundic acid 30, taltirelin 10, combination 10+3 mg/kg/day; for Body weight, Day 0: before administration, one week after 4-VO surgery, groups later given arundic acid 30, taltirelin 10, combination 10+3 mg/kg/day; for Body weight change in words: compared with Group 2 (control), until day 28, arundic acid 30, taltirelin 10, combination 10+3 mg/kg/day
Method: 7-week-old (body weight: 200 to 240 g) male Crl: Wistar rats were used for an experiment after acclimation for 1 week or more. During the experimental period, the rats were raised in an animal room maintained at a room temperature of 23±1° C. and a humidity of 55±5%, and illuminated for 12 hours (6:30-18:30); with ad libitum access to food (Oriental Yeast, CRF-1) and water.
Arundic acid ((R)-(−)-2-propyloctanoic acid: Lot No. CS04818-503, M.W.186.29, specific gravity: 0.908), which is an astrocyte function-improving agent, used in this test is a product synthesized by Chemical Soft Co., Ltd. Taltirelin hydrate (hereinafter referred to as taltirelin, M.W.463.47: N-[(4S)-1-methyl-2,6-dioxohexahydropyrimidine-4-carbonyl]-L-histidyl-L-prolinamide (Lot No. N16P)), which is a ataxia-improving agent, used in this test is a product purchased from Matrix Scientific. When arundic acid was to be administered at a dose of 30 mg/kg/5 mL, 1.61 mL of 1N NaOH was added to 300 mg (306 μL) of arundic acid to dissolve the arundic acid, and 48.084 mL of water or 0.5% CMC (carboxymethyl cellulose) was added to the resulting solution to make a total volume of 50 mL. In the experiment, a 10-fold concentrated arundic acid solution was prepared and adjusted for the concentration before use. When taltirelin was to be administered at a dose of 3 mg/kg or 10 mg/kg, taltirelin was dissolved in distilled water in a volume of 5 ml/kg. The test drug(s) were orally administered for 28 days (including Saturdays, Sundays, and public holidays), starting from 1 week after preparation of four-vessel occlusion models.
Five groups of rats (4 to 6 rats per group) were used. The details are as follows. Group 1 is a group that was not subjected to four-vessel occlusion. Groups 2 to 5 are groups that were subjected to four-vessel occlusion.
A vertebral artery cauterization surgery was performed in accordance with the method of Pulsinelli & Brierley (Pulsinelli, W. A. and Brierley, J. B.: Stroke 10, 267, 1979). More specifically, the rats anesthetized with Nem-ravona (registered trademark) and Butal (registered trademark) were fixed in the prone position to a brain stereotaxic apparatus, and the dorsal cervical skin and muscle layer were incised to expose the first cervical vertebra. The tips of the tweezers of a bipolar coagulator (Mizuho Ikakogyo Co., Ltd.; MICROID) were inserted into the alar foramina on both sides of the first cervical vertebra, and the vertebral artery running upward toward the cerebral base was bilaterally cut off by electrocauterization. The skin was then sutured. Subsequently, the rats were fixed again in the supine position to an experimental surgical table, and the ventral cervical skin was incised. After the bilateral common carotid arteries were separated from surrounding tissues and silk thread was looped around the arteries, the skin was sutured. After completion of the surgery, the rats were returned to a cage and observed. No behavioral abnormality was confirmed.
Twenty-four hours after vertebral artery cauterization by the above method, the rats under isoflurane inhalation anesthesia were fixed in the supine position for immobilization before common carotid artery ligation on the following day. The ventral cervical skin was incised again to expose bilateral common carotid arteries. First, the right-side common carotid artery was occluded with an artery clamp or Mosquito hemostat forceps (both forceps were covered with a silicone tube to reduce stimulus to the blood vessel wall). After about 60 seconds, the left-side common carotid artery was occluded in the same manner. Since righting reflex (RR) of rats during bilateral common carotid artery occlusion, i.e., rats with brain ischemia, was lost, immobilization in the supine-position seemed unnecessary. However, sudden movements, such as walking-like motions of four limbs or lateral turning, were observed. […]

In the case of `CCCCCC[C@@H](CCC)C(=O)O` [Arundic acid, (R)-(−)-2-propyloctanoic acid], the “Hidden test Latency” value ([1]; Mean ± S.E.) is reported as 78 ± 5.2 s, the “Hidden test Total distance moved” value ([1]; Mean ± S.E.) is reported as 17.4 ± 2.1 m and the “Hidden test, At the time of grouping Latency” value (“Hidden test, At the time” for short) ([1]; Mean ± S.E.) is reported as 102 ± 9.2 s. The “Hidden test Latency” value ([1]; individual rat, 3 mg/kg/day) was 73.8 s and 82.2 s and 90.3 s and 66.5 s, the “Hidden test Total distance moved” value ([1]; individual rat, 3 mg/kg/day) was 13.0 m and 15.8 m and 17.9 m and 22.8 m and the “Hidden test, At the time” value ([1]; individual rat) was 112.5 s and 86.9 s and 123.2 s and 87 s. The “Spatial learning capacity and spatial memory capacity in the Morris water maze test, in words” value ([1]; oral 28 d: arundic acid 30, combination 10+3 mg/kg/day) was “did not affect spatial learning capacity and spatial memory capacity”, the “Time to reach the platform in the Hidden test, in words” value [1] was “no improvement in time to reach the platform” and the “Total distance moved in the Hidden test, in words” value [1] was “not considered to be significantly improved”. The “Body weight, Day 7” value [2] was 255.5 ± 5.1 g, the “Body weight, Day 14” value [2] was 272.6 ± 7.4 g and the “Body weight, Day 21” value [2] was 288.0 ± 7.1 g. The “Body weight, Day 28” value [2] was 308.5 ± 5.0 g, the “Body weight, Day 0” value [2] was 228.7 ± 4.9 g and the “Body weight change in words” value [2] was “favorable body weight increase”.
For `CN1C(=O)C[C@@H](C(=O)N[C@@H](Cc2c[nH]cn2)C(=O)N2CCC[C@H]2C(N)=O)NC1=O` [Taltirelin, N-[(4S)-1-methyl-2,6-dioxohexahydropyrimidine-4-carbonyl]-L-histidyl-L-prolinamide], the “Hidden test Latency” value ([1]; Mean ± S.E.) was 83 ± 6.6 s, the “Hidden test Total distance moved” value ([1]; Mean ± S.E.) was 16.1 ± 1.6 m and the “Hidden test, At the time” value ([1]; Mean ± S.E.) was 102 ± 8.3 s. The “Hidden test Latency” value ([1]; individual rat, 3 mg/kg/day) was 68.9 s and 88.1 s and 76.4 s and 99.1 s, the “Hidden test Total distance moved” value ([1]; individual rat, 3 mg/kg/day) was 19.8 m and 15.0 m and 12.3 m and 17.1 m and the “Hidden test, At the time” value ([1]; individual rat) was 100.1 s and 97.2 s and 85.5 s and 124.8 s. For the same compound, the “Time to reach the platform in the Hidden test, in words” value [1] was “no improvement in time to reach the platform”, the “Total distance moved in the Hidden test, in words” value [1] was “not considered to be significantly improved” and the “Body weight, Day 7” value [2] was 256.6 ± 8.7 g. The “Body weight, Day 14” value [2] was 272.3 ± 10.3 g, the “Body weight, Day 21” value [2] was 291.3 ± 12.0 g and the “Body weight, Day 28” value [2] was 307.2 ± 12.2 g. For the same compound, the “Body weight, Day 0” value [2] was 228.6 ± 4.5 g and the “Body weight change in words” value [2] was “favorable body weight increase”.
